Measured values published in ChEMBL document CHEMBL1141727, “Isolation and cytotoxic evaluation of marine sponge-derived norterpene peroxides” (J Nat Prod, 1998).

Legend:
[1] = test system: MDA-MB-435; experiment: Growth inhibition of human MDA-MB-435 cells; type: functional
[2] = test system: L1210; experiment: Growth inhibition of mouse L1210 cells assessed as zone units at 50 ug/disk by disk diffusion agar colony formation assay; type: functional
[3] = test system: HT-29; experiment: Growth inhibition of human HT-29 cells; type: functional
[4] = test system: SNB-75; experiment: Growth inhibition of human SNB75 cells; type: functional
[5] = test system: HOP-62; experiment: Growth inhibition of human HOP62 cells; type: functional
[6] = test system: K562; experiment: Growth inhibition of human K562 cells; type: functional
[7] = test system: U-251; experiment: Growth inhibition of human U251 cells; type: functional
[8] = test system: UO-31; experiment: Growth inhibition of human UO31 cells; type: functional
[9] = test system: OVCAR-3; experiment: Growth inhibition of human OVCAR-3 cells; type: functional
[10] = test system: SK-MEL-28; experiment: Growth inhibition of human SK-MEL-28 cells; type: functional
[11] = test system: MDA-MB-231; experiment: Growth inhibition of human MDA-MB-231 cells; type: functional
[12] = test system: HL-60(TB); experiment: Growth inhibition of human HL-60(TB) cells; type: functional
[13] = test system: OVCAR-8; experiment: Growth inhibition of human OVCAR8 cells; type: functional
[14] = test system: SW-620; experiment: Growth inhibition of human SW620 cells; type: functional
[15] = test system: CAKI-1; experiment: Growth inhibition of human Caki1 cells; type: functional
[16] = Growth inhibition of human Hs 578T cells; type: functional
[17] = test system: Malme-3M; experiment: Growth inhibition of human MALME-3M cells; type: functional
[18] = test system: SK-MEL-2; experiment: Growth inhibition of human SK-MEL-2 cells; type: functional
[19] = test system: NCI-H23; experiment: Growth inhibition of human NCI-H23 cells; type: functional
[20] = test system: LOX IMVI; experiment: Growth inhibition of human LOXIMVI cells; type: functional
[21] = test system: UACC-257; experiment: Growth inhibition of human UACC257 cells; type: functional
[22] = test system: COLO 205; experiment: Growth inhibition of human COLO205 cells; type: functional
[23] = test system: SK-OV-3; experiment: Growth inhibition of human SKOV3 cells; type: functional
[24] = test system: SF-539; experiment: Growth inhibition of human SF539 cells; type: functional
[25] = test system: A549; experiment: Growth inhibition of human A549 cells; type: functional
[26] = test system: DU-145; experiment: Growth inhibition of human DU145 cells; type: functional
[27] = test system: PC-3; experiment: Growth inhibition of human PC3 cells; type: functional
[28] = test system: IGROV-1; experiment: Growth inhibition of human IGROV1 cells; type: functional
[29] = test system: MC-38; experiment: Growth inhibition of mouse C38 cells assessed as zone units at 50 ug/disk by disk diffusion agar colony formation assay; type: functional
[30] = test system: CCRF-CEM; experiment: Growth inhibition of human CCRF-CEM cells; type: functional
[31] = test system: Mus musculus; experiment: Toxicity in mouse at 424 mg/kg, iv in split dose; type: organism-based; parameters: dose 424 mg/kg, route intravenous; conditions: in vivo
[32] = test system: HCC 2998; experiment: Growth inhibition of human HCC2998 cells; type: functional
[33] = test system: HOP-92; experiment: Growth inhibition of human HOP92 cells; type: functional
[34] = test system: NCI-H522; experiment: Growth inhibition of human NCI-H522 cells; type: functional
[35] = test system: NCI-H322M; experiment: Growth inhibition of human NCI-H322M cells; type: functional
[36] = test system: RXF 393; experiment: Growth inhibition of human […] cells; type: functional
[37] = test system: EKVX; experiment: Growth inhibition of human EKVX cells; type: functional
[38] = test system: ACHN; experiment: Growth inhibition of human ACHN cells; type: functional
[39] = test system: MDA-N; experiment: Growth inhibition of human MDA-N cells; type: functional
[40] = test system: SR; experiment: Growth inhibition of human SR cells; type: functional
[41] = test system: CX-1; experiment: Growth inhibition of human CX-1 cells assessed as zone units at 50 ug/disk by disk diffusion agar colony formation assay; type: functional
[42] = Growth inhibition of human MCF7/ADR resistant cells; type: functional; conditions: NCI/ADR-RES
[43] = test system: NCI-H460; experiment: Growth inhibition of human NCI-H460 cells; type: functional
[44] = test system: HCT-15; experiment: Growth inhibition of human HCT15 cells; type: functional
[45] = test system: MOLT-4; experiment: Growth inhibition of human MOLT4 cells; type: functional
[46] = test system: SNB-19; experiment: Growth inhibition of human SNB19 cells; type: functional
[47] = test system: SN12C; experiment: Growth inhibition of human SN12C cells; type: functional
[48] = test system: P388; experiment: Growth inhibition of mouse P388 cells assessed as zone units at 50 ug/disk by disk diffusion agar colony formation assay; type: functional
[49] = test system: M14; experiment: Growth inhibition of human M14 cells; type: functional
[50] = test system: UACC-62; experiment: Growth inhibition of human UACC62 cells; type: functional
[51] = test system: 786-0; experiment: Growth inhibition of human 786-0 cells; type: functional
[52] = test system: OVCAR-4; experiment: Growth inhibition of human OVCAR4 cells; type: functional
[53] = test system: KM12; experiment: Growth inhibition of human KM12 cells; type: functional
[54] = test system: SF-295; experiment: Growth inhibition of human SF295 cells; type: functional
[55] = test system: SF-268; experiment: Growth inhibition of human SF268 cells; type: functional
[56] = test system: MCF7; experiment: Growth inhibition of human MCF7 cells; type: functional
[57] = test system: HCT-116; experiment: Growth inhibition of human HCT116 cells; type: functional
[58] = test system: TK-10; experiment: Growth inhibition of human TK10 cells; type: functional
[59] = test system: OVCAR-5; experiment: Growth inhibition of human OVCAR5 cells; type: functional
[60] = test system: SK-MEL-5; experiment: Growth inhibition of human SK-MEL-5 cells; type: functional
[61] = test system: BT-549; experiment: Growth inhibition of human BT549 cells; type: functional
[62] = Growth inhibition of human […] cells; type: functional
[63] = Growth inhibition of mouse M17/ADR cells assessed as zone units at 50 ug/disk by disk diffusion agar colony formation assay; type: functional
[64] = test system: T47D; experiment: Growth inhibition of human T47D cells; type: functional
[65] = test system: NCI-H226; experiment: Growth inhibition of human NCI-H226 cells; type: functional
[66] = test system: A498; experiment: Growth inhibition of human A498 cells; type: functional
[67] = Growth inhibition of human H125 cells assessed as zone units at 50 ug/disk by disk diffusion agar colony formation assay; type: functional

COC(=O)[C@H](C)[C@H]1CC[C@@](C)(CCC2=C(C)CCCC2(C)C)OO1 [NUAPAPUIN A METHYL ESTER]
GI50 [1]: > 25 µM | Activity [2]: 400 Zone units | GI50 [3]: > 25 µM | GI50 [4]: > 25 µM | GI50 [5]: > 25 µM | GI50 [6]: 14.3 µM | GI50 [7]: > 25 µM | GI50 [8]: > 23.7 µM | GI50 [9]: > 25 µM | GI50 [10]: > 25 µM | GI50 [11]: > 25 µM | GI50 [12]: > 5 µM | GI50 [13]: > 25 µM | GI50 [14]: > 25 µM | GI50 [15]: > 25 µM | GI50 [16]: > 25 µM | GI50 [17]: > 25 µM | GI50 [18]: > 25 µM | GI50 [19]: > 25 µM | GI50 [20]: > 5 µM | GI50 [21]: > 25 µM | GI50 [22]: > 25 µM | GI50 [23]: > 25 µM | GI50 [24]: > 25 µM | GI50 [25]: > 5 µM | GI50 [26]: > 25 µM | GI50 [27]: > 25 µM | GI50 [28]: > 5 µM | Activity [29]: 700 Zone units | GI50 [30]: 19.4 µM | Activity [31]: Non-toxic | GI50 [32]: > 25 µM | GI50 [33]: > 25 µM | GI50 [34]: > 16.1 µM | GI50 [35]: > 25 µM | GI50 [36]: > 25 µM | GI50 [37]: > 25 µM | GI50 [38]: 25 µM | GI50 [39]: > 25 µM | GI50 [40]: > 25 µM | Activity [41]: 310 Zone units | GI50 [42]: > 25 µM | GI50 [43]: > 25 µM | GI50 [44]: > 25 µM | GI50 [45]: > 5 µM | GI50 [46]: > 25 µM | GI50 [47]: > 25 µM | Activity [48]: 400 Zone units | GI50 [49]: > 25 µM | GI50 [50]: > 25 µM | GI50 [51]: > 25 µM | GI50 [52]: > 25 µM | GI50 [53]: > 5 µM | GI50 [54]: > 25 µM | GI50 [55]: > 25 µM | GI50 [56]: > 25 µM | GI50 [57]: > 25 µM | GI50 [58]: > 25 µM | GI50 [59]: > 25 µM | GI50 [60]: > 25 µM | GI50 [61]: > 5 µM | GI50 [62]: > 25 µM | Activity [63]: 400 Zone units | GI50 [64]: > 25 µM

C=C1CCCC(C)(C)C1CC[C@]1(C)CC[C@H]([C@@H](C)C(=O)OC)OO1 (some centres undefined) [NUAPAPUIN B]
GI50 [1]: 4.34 µM | Activity [2]: 180 Zone units | GI50 [3]: 0.38 µM | GI50 [4]: 2.67 µM | GI50 [5]: 0.71 µM | GI50 [6]: 6.38 µM | GI50 [7]: 2.91 µM | GI50 [8]: 0.52 µM | GI50 [9]: 21.8 µM | GI50 [10]: 20.6 µM | GI50 [11]: 757 µM | GI50 [12]: 1.6 µM | GI50 [13]: 5.76 µM | GI50 [14]: 7.53 µM | GI50 [15]: 0.32 µM | GI50 [16]: 4.6 µM | GI50 [17]: 21 µM | GI50 [18]: 8.28 µM | GI50 [19]: 3.54 µM | GI50 [20]: 0.47 µM | GI50 [21]: 16.3 µM | GI50 [22]: 4.54 µM | GI50 [23]: 4.4 µM | GI50 [24]: 6.25 µM | GI50 [25]: 0.64 µM | GI50 [26]: 3.67 µM | GI50 [27]: 3.63 µM | GI50 [28]: 0.5 µM | Activity [29]: 300 Zone units | GI50 [30]: 1.27 µM | GI50 [32]: 3.68 µM | GI50 [33]: 0.76 µM | GI50 [34]: 3.05 µM | GI50 [35]: 6.9 µM | GI50 [36]: 2.62 µM | GI50 [37]: 7.9 µM | GI50 [38]: 0.48 µM | GI50 [39]: 3.54 µM | GI50 [40]: 2.17 µM | GI50 [65]: 6.17 µM | GI50 [42]: 5.67 µM | GI50 [43]: 0.91 µM | GI50 [44]: 13.1 µM | GI50 [66]: 4.92 µM | GI50 [45]: 7.04 µM | GI50 [46]: 5.47 µM | GI50 [47]: 3.73 µM | Activity [48]: 180 Zone units | GI50 [49]: 6.43 µM | GI50 [50]: 4.13 µM | GI50 [51]: 0.27 µM | GI50 [52]: 4.01 µM | GI50 [53]: 0.4 µM | GI50 [54]: 4.42 µM | GI50 [55]: 3.19 µM | GI50 [56]: 18.4 µM | GI50 [57]: 8.14 µM | Activity [67]: 200 Zone units | GI50 [58]: 4.21 µM | GI50 [59]: 4.76 µM | GI50 [60]: 3.94 µM | GI50 [61]: 4.95 µM | GI50 [62]: 4.04 µM | Activity [63]: 100 Zone units | GI50 [64]: 2.94 µM
